Assay results published in article PMC9823356, “Inhibition of Cancer Cell Proliferation and Bacterial Growth by Silver(I) Complexes Bearing a CH3-Substituted Thiadiazole-Based Thioamide” (Molecules, 2023).

What was measured:
[1] = Reduction of hydrogen peroxide; conditions: compound 0.1 mM, 20 min, phosphate buffer pH 7.4
Procedure: In vitro antioxidant activity studies for 1–4 and their free ligands were performed in order to determine their ability to scavenge DPPH, and ABTS free radicals and to reduce H2O2 and was compared with the antioxidant capacity of reference compounds (NDGA, BHT, trolox and ascorbic acid).
The absorbance was measured at 230 nm after 20 min. The antioxidant activity of the compounds was expressed as percent reduction of H2O2 (%H2O2). Ascorbic acid (or vitamin C) was used as an appropriate standard.

[2] = test system: PC3 prostate adenocarcinoma cells; test: MTT cytostatic/cytotoxic assay; type: cell-based, human; conditions: PC3, 48 h treatment
Procedure: (§1) The cell lines were obtained from the American Type of Culture collection (ATCC), except HuP-T3 which was kindly donated from University of Crete, School of Medicine, Greece, and were grown in different culture medium according to the instructions.
(§2) For the determination of the cell viability, it was employed the MTT assay. Cells were plated in 96-well plate at a density of 1 × 10^4 cells/mL per well and maintained for 72 h at 37 °C in a 5% CO2 incubator and grown as monolayers. […] The viability of cultured cells was estimated by a (3-(4,5-imethylthiazol-2-yl)-2,5-diphenyltetrazolium bromide (MTT) metabolic assay as previously described.
(§3) In brief, MTT (Sigma, St Louis, Missouri, USA) was dissolved in PBS in a concentration of 5 mg/mL, filter sterilized, and stored at 4 °C. Then, 50 μL of stock solution was added to each culture and incubated for 3 h at 37 °C. Formazan crystals were solubilized by DMSO (100 μL). Absorbance of the converted dye was measured at a wavelength of 540 nm on ELISA reader (VersaMax Microplate Reader Orleans, USA). […] Using seven absorbance measurements [time 24 h (Ct24), control growth 72 h (Ct72), and test growth in the presence of drug at five concentration levels (Tt72x)], the percentage of growth was calculated at each level of the drug concentrations. The percentage growth inhibition was calculated according to National Cancer Institute (NCI) as: {[(Tt72x) − (Ct24)]/[(Ct72) − (Ct24)]} × 100 for concentrations for which Tt72x>Ct24 and {(Tt72x) − (Ct24)]/(Ct24)} × 100 for concentrations for which Tt72x<Ct24. […] All experiments were carried out in triplicate. A significant difference was presumed to exist when p ≤ 0.05 (two tailed paired t test).

[3] = test system: Hup-T3 pancreatic adenocarcinoma cells; test: MTT cytostatic/cytotoxic assay; type: cell-based, human; conditions: Hup-T3, 48 h treatment
Procedure: as §1, §2, §3

[4] = test system: MRC5 human normal lung cells; test: MTT cytostatic/cytotoxic assay; type: cell-based; conditions: MRC5, 48 h treatment
Procedure: as §1, §2, §3

[5] = test system: DMS114 small cell lung cancer cells; test: MTT cytostatic/cytotoxic assay; type: cell-based, human; conditions: DMS114, 48 h treatment
Procedure: as §1, §2
as §3, with “Using seven absorbance measurements [time 24 h (Ct24), control growth 72 h (Ct72), and test growth in the presence of drug at five concentration levels (Tt72x)], the percentage of growth was calculated at each level of the drug concentrations.” left out

[6] = test system: SKOV-3 ovarian cancer cells; test: MTT cytostatic/cytotoxic assay; type: cell-based, human; conditions: SKOV-3, 48 h treatment
Procedure: as §1, §2
as §3, with “Using seven absorbance measurements [time 24 h (Ct24), control growth 72 h (Ct72), and test growth in the presence of drug at five concentration levels (Tt72x)], the percentage of growth was calculated at each level of the drug concentrations.” left out

[7] = biological target: T1, HSA (human serum albumin) (Homo sapiens, UniProt P02768); test: Serum albumin tryptophan fluorescence quenching; type: binding
T1 construct: purchased
Procedure: (§4) The serum albumin (SA) binding study was performed by tryptophan fluorescence quenching experiments using BSA (3 μM) or HSA (3 μM) in buffer (containing 1 mM trisodium citrate and 150 mM NaCl at pH 7.0).
(§5) The Stern-Volmer and Scatchard graphs are used in order to study the interaction of a quencher with serum albumins. According to Stern-Volmer quenching equation (Equation (2)), where Io = the initial tryptophan fluorescence intensity of SA, I = the tryptophan fluorescence intensity of SA after the addition of the quencher, kq = the quenching constant, KSV = the Stern-Volmer constant, τo = the average lifetime of SA without the quencher, [Q] = the concentration of the quencher. KSV (M^–1) can be obtained by the slope of the diagram Io/I versus [Q], and subsequently the quenching constant (kq, M^–1s^–1) is calculated from Equation (3) with τ0 = 10^–8 s as fluorescence lifetime of tryptophan in SA.
(§6) From the Scatchard equation (5) ΔΙ/Ιο/Q=nK−kΔΙ/Ιο where, n is the number of binding sites per albumin and K is the SA-binding constant, K (in M^–1) is calculated from the slope in plots ΔΙ/Ιο/Q versus ΔΙ/Ιο and n is given by the ratio of y intercept to the slope.

[8] = biological target: T2, BSA (bovine serum albumin) (Bos taurus, UniProt P02769); test: Serum albumin tryptophan fluorescence quenching; type: binding
T2 construct: purchased
Procedure: as §4, §5, §6

calf-thymus (CT) DNA = test: CT DNA interaction by UV-visible spectroscopy; conditions: upon addition of CT DNA
Procedure: The UV-visible spectra of CT DNA solution (1.5 × 10^−4 M) were recorded in the presence of each compound at diverse [compound]/[DNA] mixing ratios (r).

[9] = cytocidal/cytotoxic, read-out: IC50 (the source's name)

T1 sequence (P02768 25-609): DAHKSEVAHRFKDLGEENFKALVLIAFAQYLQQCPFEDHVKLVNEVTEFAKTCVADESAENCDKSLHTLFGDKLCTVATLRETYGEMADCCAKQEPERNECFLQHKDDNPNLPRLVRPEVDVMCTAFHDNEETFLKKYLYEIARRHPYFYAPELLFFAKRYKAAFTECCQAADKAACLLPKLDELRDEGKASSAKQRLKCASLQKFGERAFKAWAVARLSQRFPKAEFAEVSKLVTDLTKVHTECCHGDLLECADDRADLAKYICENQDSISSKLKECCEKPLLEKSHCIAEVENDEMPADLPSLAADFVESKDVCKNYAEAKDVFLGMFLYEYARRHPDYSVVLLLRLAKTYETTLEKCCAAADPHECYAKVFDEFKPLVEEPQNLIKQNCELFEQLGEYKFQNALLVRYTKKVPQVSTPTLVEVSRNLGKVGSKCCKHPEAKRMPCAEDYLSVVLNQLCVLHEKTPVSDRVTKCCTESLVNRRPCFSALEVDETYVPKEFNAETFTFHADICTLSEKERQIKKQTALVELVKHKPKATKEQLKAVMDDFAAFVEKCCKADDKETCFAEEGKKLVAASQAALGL
T2 sequence (P02769 25-607): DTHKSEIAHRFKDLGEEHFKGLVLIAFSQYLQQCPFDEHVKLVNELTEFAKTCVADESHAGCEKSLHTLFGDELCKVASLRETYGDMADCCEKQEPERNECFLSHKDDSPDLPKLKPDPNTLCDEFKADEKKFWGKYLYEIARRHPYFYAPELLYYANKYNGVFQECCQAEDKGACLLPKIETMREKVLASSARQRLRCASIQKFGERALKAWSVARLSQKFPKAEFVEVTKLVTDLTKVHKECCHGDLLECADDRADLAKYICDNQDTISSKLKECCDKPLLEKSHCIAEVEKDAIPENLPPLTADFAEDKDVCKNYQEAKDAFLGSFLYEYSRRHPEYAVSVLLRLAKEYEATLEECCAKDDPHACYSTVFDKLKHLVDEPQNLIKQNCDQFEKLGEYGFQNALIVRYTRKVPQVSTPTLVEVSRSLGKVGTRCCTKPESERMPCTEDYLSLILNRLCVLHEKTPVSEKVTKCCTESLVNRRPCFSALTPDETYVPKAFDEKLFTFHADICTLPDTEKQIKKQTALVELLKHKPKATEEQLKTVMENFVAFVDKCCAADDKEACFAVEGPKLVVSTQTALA

Q: For [Ag(mtdztH)(dppe)(NO3)]n [Compound 4], which “H2O2 reducing ability (%H2O2)” value [1] is on record?
A: 35.17±1.96%

Q: And the LC50 [2, 9]?
A: 3.6 ± 0.05 µM

Q: What about the GI50 ([2]; growth inhibition) of the same substance?
A: 0.6 ± 0.03 µM

Q: What about the TGI ([2]; total growth inhibition) of the same substance?
A: 1.6±0.03 μΜ

Q: And the IC50 ([3]; cytocidal/cytotoxic)?
A: 3 ± 0.04 µM

Q: And the GI50 ([3]; growth inhibition)?
A: 0.4 ± 0.02 µM

Q: And the TGI ([3]; total growth inhibition)?
A: 0.9±0.04 μΜ

Q: What about the IC50 ([4]; cytocidal/cytotoxic) of the same substance?
A: 4.4 ± 0.08 µM

Q: And the GI50 ([4]; growth inhibition)?
A: 1.2 ± 0.05 µM

Q: What about the TGI ([4]; total growth inhibition) of the same substance?
A: 2.8±0.05 μΜ

Q: What about the LC50 [5, 9] of the same substance?
A: 3.1 ± 0.05 µM

Q: What about the GI50 ([5]; growth inhibition) of the same substance?
A: 0.5 ± 0.04 µM

Q: And the TGI ([5]; total growth inhibition)?
A: 1.0±0.05 μΜ

Q: What about the LC50 [6, 9] of the same substance?
A: 2.3 ± 0.05 µM

Q: What about the GI50 ([6]; growth inhibition) of the same substance?
A: 1 ± 0.02 µM

Q: What about the TGI ([6]; total growth inhibition) of the same substance?
A: 2.0±0.03 μΜ

Q: What about the “binding constant K” value ([7]; Scatchard equation) of the same substance?
A: 7.21 (±0.53) × 10^4 M^−1

Q: What about the HSA emission quenching ([7]; λex 295 nm, λem 338 nm) of the same substance?
A: 23%

Q: What about the emission-quenching constant kq ([7]; τ0 = 10^–8 s) of the same substance?
A: 5.11 (±0.37) × 10^11 M^−1s^−1

Q: And the “decrease in BSA fluorescence” value ([8]; λex 295 nm, λem 350 nm)?
A: 44.5%

Q: What about the emission-quenching constant kq ([8]; τ0 = 10^–8 s) of the same substance?
A: 7.15 (±0.40) × 10^12 M^−1s^−1

Q: And the “percentage of hyper-/hypochromism ΔA/Aο” value (calf-thymus (CT) DNA; DMSO solution, + hyperchromism, – hypochromism)?
A: –13%

Q: What about the “hypochromism (intensity decrease) of absorption band at 272 nm” value (calf-thymus (CT) DNA) of the same substance?
A: up to 13%
